Results taken from ChEMBL document CHEMBL1128635, “Structure-activity studies of the natural product substance P antagonist win 64821” (Bioorg Med Chem Lett, 1995).
pIC50: −log10 of the molar value.

Biological target: Substance-P receptor (Homo sapiens, UniProt P25103)
Experiment: Antagonistic activity against Tachykinin receptor 1
Format: functional

Substance-P receptor, sequence (P25103 whole entry): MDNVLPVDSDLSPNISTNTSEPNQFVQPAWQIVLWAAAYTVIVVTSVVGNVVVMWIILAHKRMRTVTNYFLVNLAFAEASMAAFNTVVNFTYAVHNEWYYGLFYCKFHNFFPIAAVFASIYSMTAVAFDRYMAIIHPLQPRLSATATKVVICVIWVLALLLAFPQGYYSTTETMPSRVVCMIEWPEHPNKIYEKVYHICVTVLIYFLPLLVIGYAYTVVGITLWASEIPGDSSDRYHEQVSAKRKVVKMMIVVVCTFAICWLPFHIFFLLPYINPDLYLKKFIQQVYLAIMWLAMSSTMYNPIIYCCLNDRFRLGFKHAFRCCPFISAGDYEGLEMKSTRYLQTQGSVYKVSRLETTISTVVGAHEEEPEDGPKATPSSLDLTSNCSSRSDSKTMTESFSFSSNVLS

pIC50	SMILES
4.27	COc1ccc([N+](=O)[O-])cc1C[C@]12C[C@H]3C(=O)N[C@@H](Cc4ccccc4)C(=O)N3[C@H]1Nc1ccccc12
6.36	Cc1cccc2c1C1(C34C[C@H]5C(=O)N[C@@H](Cc6ccccc6)C(=O)N5[C@H]3Nc3ccccc34)C[C@H]3C(=O)N[C@@H](Cc4ccccc4)C(=O)N3[C@H]1N2 (stereo partly drawn)
< 4.00	O=C1[C@@H]2C[C@]3(Cc4cc([N+](=O)[O-])ccc4O)c4ccccc4N[C@@H]3N2C(=O)[C@H](Cc2ccccc2)N1Cc1cc([N+](=O)[O-])ccc1O
4.06	COc1ccc([N+](=O)[O-])cc1C[C@@]12C[C@H]3C(=O)N[C@@H](Cc4ccccc4)C(=O)N3[C@@H]1Nc1ccccc12
4.42	COc1ccc(N)cc1C[C@@]12C[C@H]3C(=O)N[C@@H](Cc4ccccc4)C(=O)N3[C@@H]1Nc1ccccc12
< 4.00	O=C1N[C@@H](Cc2ccccc2)C(=O)N2[C@H]1C[C@@]1(O)c3ccccc3N[C@@H]21
4.32	O=C1N[C@@H](Cc2ccccc2)C(=O)N2[C@H]3Nc4ccccc4[C@@]3(Cc3cc([N+](=O)[O-])ccc3O)C[C@@H]12
< 4.00	O=C1N[C@@H](Cc2ccccc2)C(=O)N2[C@H]3Nc4ccccc4[C@@]3(O)C[C@@H]12
4.59	COc1ccc(N)cc1C[C@]12C[C@H]3C(=O)N[C@@H](Cc4ccccc4)C(=O)N3[C@H]1Nc1ccccc12
< 4.00	O=C1[C@@H]2C[C@@]3(Cc4cc([N+](=O)[O-])ccc4O)c4ccccc4N[C@H]3N2C(=O)[C@H](Cc2ccccc2)N1Cc1cc([N+](=O)[O-])ccc1O
5.24	Cc1cccc2c1C1(C34C[C@H]5C(=O)N[C@@H](Cc6ccccc6)C(=O)N5[C@H]3Nc3cccc(C)c34)C[C@H]3C(=O)N[C@@H](Cc4ccccc4)C(=O)N3[C@H]1N2 (stereo partly drawn)
4.01	O=C1N[C@@H](Cc2ccccc2)C(=O)N2[C@H]1C[C@@]1(Cc3cc([N+](=O)[O-])ccc3O)c3ccccc3N[C@@H]21

SMILES	pIC50
O=C1N[C@@H](Cc2ccccc2)C(=O)N2[C@H]3Nc4ccccc4C3(C34C[C@H]5C(=O)N[C@@H](Cc6ccccc6)C(=O)N5[C@H]3Nc3ccccc34)C[C@@H]12 (stereo partly drawn)	6.62
